Where a SMILES comes first, the peptide text is derived from it.
Assays:
[1] = test system: Growth Hormone secretion; assay: Growth Hormone secretion in female mice after subcutaneous GRF analog; assay type: in vivo; conditions: female CD-1 mice; 10 μg/mouse subcutaneous; plasma 10 minutes after injection
Description: (§1) CD-1 mice (female, weighting from 20 to 25 g) were obtained from Charles River Inc. Animals were used according to a protocol of the Animal Care Committee along with the principles of the Guide for the Care and Use of Experimental Animals of the Canadian Council on Animal Care. The animals were maintained on standard laboratory chow under a 12:12 light:dark cycle. They were kept in groups of 4 mice per cage.
At the day of the experiment, mice received a subcutaneous injection of GRF analog (10 μg/mouse dissolved in 20 mM sodium acetate (AcONa)+5% mannitol at pH 5). 10 minutes after injection, the mice were anesthezied with isolufrane. Blood samples (500 μl) were obtained by intra-cardiac puncture. Blood was placed into microtainer pre-treated with K3EDTA and immediately centrifuged at 13,000 RPM in a desktop centrifuge for 2 minutes. The plasma was collected and placed into a screwcap Eppendorf™ tube and quick frozen in liquid nitrogen. The samples were then kept at −80° C. until assayed. Determination of GH levels was performed as described below.
(§2) Rat and mouse plasma samples were vortexed carefully and centrifuged at 9,000 RPM for 2 min at 4° C. The dosage of GH levels was performed using the Rat/Mouse Growth Hormone ELISA kit from Millipore (Cat. # EZRMGH-45K). Sample supernatants were first diluted 20-fold with the GH ELISA assay buffer, and 10 μl of this dilution was added to the ELISA plate with 90 μl of GH EIA assay buffer. The remaining of the procedure was performed according to the manufacturer's instructions, and the data obtained were analyzed using GraphPad Prism™ software.
(§3) The GRF analogs described herein were tested for their ability to induce GH release in female mice and rats. […] The data are presented in Tables III (mice) and IV-V (rats).

[2] = test system: Growth Hormone secretion; assay: Growth Hormone secretion in female rats after subcutaneous GRF analog; assay type: in vivo; conditions: female Sprague-Dawley rats; 10 μg/rat subcutaneous; plasma 0-60 minutes
Description: as §1, with “Sprague-Dawley rats” for “CD-1 mice”, “250” for “20”, “300” for “25”, “rats” for “mice”
The animals were anesthetized with isoflurane 2.5%. A mid-section opening was made in the neck to expose the carotid artery. The carotid artery was canulated with polypropylene tubing (PE-50) to allow blood withdrawal. After surgical preparation, rats received a subcutaneous injection of GRF analog (10 μg/rat dissolved in 20 mM AcONa+5% mannitol at pH 5). For pharmacodynamics studies, blood samples (400 μL) were collected from 4 to 8 animals per group per time point. Blood samples (400 μl) were collected via the carotid catheter at 0, 10, 20, 30, 45 and 60 minutes after drug injection. Blood was placed into microtainer pre-treated with K3EDTA and immediately centrifuged at 13,000 RPM in a desktop centrifuge for 2 minutes. The plasma was collected and placed into a screw cap Eppendorf™ and quick frozen in liquid nitrogen. The samples were then kept at −80° C. until assayed. Determination of GH levels was performed as described below.
as §2, §3

SMILES | GH levels 10 min [1] [ng/mL] | Mean AUC (GH Area Under the curve, GH concentration over time) [2] | Mean Cmax (ng/ml) of Growth Hormone secretion [2] [ng/mL]
CC/C=C/CC(=O)N[C@@H](Cc1ccc(O)cc1)C(=O)N[C@@H](C)C(=O)N[C@@H](CC(=O)O)C(=O)N[C@@H](C)C(=O)N[C@H](C(=O)N[C@@H](Cc1ccccc1)C(=O)N[C@H](C(=O)N[C@@H](CC(=O)O)C(=O)N[C@@H](CO)C(=O)N[C@@H](Cc1ccc(O)cc1)C(=O)N[C@@H](CCCNC(=N)N)C(=O)N[C@@H](CCCCN)C(=O)N[C@H](C(=O)N[C@@H](CC(C)C)C(=O)N[C@@H](C)C(=O)N[C@@H](CCC(N)=O)C(=O)N[C@@H](CC(C)C)C(=O)N[C@@H](CCCCN)C(=O)N[C@@H](C)C(=O)N[C@@H](CCCNC(=N)N)C(=O)N[C@@H](CCC(N)=O)C(=O)N[C@@H](CC(=O)O)C(=O)N[C@H](C(=O)N[C@@H](CC(C)C)C(=O)N[C@@H](C)C(=O)N[C@@H](CCCNC(=N)N)C(N)=O)[C@@H](C)CC)C(C)C)[C@@H](C)O)[C@@H](C)CC [SEQ ID NO: 20, Trans-3-hexenoyl-YADAIFTDSYRKVLAQLKARQDILAR-NH2] (HELM PEPTIDE1{[CC/C=C/CC(=O)[*:2]].Y.A.D.A.I.F.T.D.S.Y.R.K.V.L.A.Q.L.K.A.R.Q.D.I.L.A.R.[am]}$$$$V2.0) | 307.7 | 966 | 31.7
CC[C@H](C)[C@H](NC(=O)[C@H](C)NC(=O)[C@H](CC(=O)O)NC(=O)[C@@H](C)NC(=O)[C@@H](N)Cc1ccc(O)cc1)C(=O)N[C@@H](Cc1ccccc1)C(=O)N[C@H](C(=O)N[C@@H](CC(=O)O)C(=O)N[C@@H](CO)C(=O)N[C@@H](Cc1ccc(O)cc1)C(=O)N[C@@H](CCCNC(=N)N)C(=O)N[C@@H](CCCCN)C(=O)N[C@H](C(=O)N[C@@H](CC(C)C)C(=O)N[C@@H](C)C(=O)N[C@@H](CCC(N)=O)C(=O)N[C@@H](CC(C)C)C(=O)N[C@@H](CCCCN)C(=O)N[C@@H](C)C(=O)N[C@@H](CCCNC(=N)N)C(=O)N[C@@H](CCC(N)=O)C(=O)N[C@@H](CC(=O)O)C(=O)N[C@H](C(=O)N[C@@H](CC(C)C)C(=O)N[C@@H](CO)C(=O)N[C@H](CCCNC(=N)N)C(N)=O)[C@@H](C)CC)C(C)C)[C@@H](C)O [SEQ ID NO: 21, Y-a-DAIFTDSYRKVLAQLKARQDILS-r-NH2] (HELM PEPTIDE1{Y.[dA].D.A.I.F.T.D.S.Y.R.K.V.L.A.Q.L.K.A.R.Q.D.I.L.S.[dR].[am]}$$$$V2.0) | 104.4 | 3130 | 135.9
CC[C@H](C)[C@H](NC(=O)[C@H](C)NC(=O)[C@H](CC(=O)O)NC(=O)[C@@H](C)NC(=O)[C@@H](N)Cc1ccc(O)cc1)C(=O)N[C@@H](Cc1ccccc1)C(=O)N[C@H](C(=O)N[C@@H](CC(=O)O)C(=O)N[C@@H](CO)C(=O)N[C@@H](Cc1ccc(O)cc1)C(=O)N[C@@H](CCCNC(=N)N)C(=O)N[C@@H](CCCCN)C(=O)N[C@H](C(=O)N[C@@H](CC(C)C)C(=O)N[C@@H](C)C(=O)N[C@@H](CCC(N)=O)C(=O)N[C@@H](CC(C)C)C(=O)N[C@@H](CCCCN)C(=O)N[C@@H](C)C(=O)N[C@@H](CCCNC(=N)N)C(=O)N[C@@H](CCC(N)=O)C(=O)N[C@@H](CC(=O)O)C(=O)N[C@@H](CC(C)C)C(=O)N[C@@H](CC(C)C)C(=O)N[C@@H](CO)C(=O)N[C@H](CCCNC(=N)N)C(N)=O)C(C)C)[C@@H](C)O [SEQ ID NO: 25, Y-a-DAIFTDSYRKVLAQLKARQDLLS-r-NH2] (HELM PEPTIDE1{Y.[dA].D.A.I.F.T.D.S.Y.R.K.V.L.A.Q.L.K.A.R.Q.D.L.L.S.[dR].[am]}$$$$V2.0) | 144.1 |  | 
CC/C=C/CC(=O)N[C@@H](Cc1ccc(O)cc1)C(=O)N[C@@H](C)C(=O)N[C@@H](CC(=O)O)C(=O)N[C@@H](C)C(=O)N[C@H](C(=O)N[C@@H](Cc1ccccc1)C(=O)N[C@H](C(=O)N[C@@H](CC(=O)O)C(=O)N[C@@H](CO)C(=O)N[C@@H](Cc1ccc(O)cc1)C(=O)N[C@@H](CCCNC(=N)N)C(=O)N[C@@H](CCCCN)C(=O)N[C@H](C(=O)N[C@@H](CC(C)C)C(=O)N[C@@H](C)C(=O)N[C@@H](CCC(N)=O)C(=O)N[C@@H](CC(C)C)C(=O)N[C@@H](CCCCN)C(=O)N[C@@H](C)C(=O)N[C@@H](CCCNC(=N)N)C(=O)N[C@@H](CCC(N)=O)C(=O)N[C@@H](CC(=O)O)C(=O)N[C@H](C(=O)N[C@@H](CC(C)C)C(=O)N[C@@H](C)C(=O)N[C@@H](CCCNC(=N)N)C(=O)N[C@@H](C)C(=O)N[C@@H](C)C(=O)N[C@@H](CCCNC(=N)N)C(N)=O)[C@@H](C)CC)C(C)C)[C@@H](C)O)[C@@H](C)CC [SEQ ID NO: 26, Trans-3-hexenoyl-YADAIFTDSYRKVLAQLKARQDILARAAR-NH2] (HELM PEPTIDE1{[CC/C=C/CC(=O)[*:2]].Y.A.D.A.I.F.T.D.S.Y.R.K.V.L.A.Q.L.K.A.R.Q.D.I.L.A.R.A.A.R.[am]}$$$$V2.0) | 484.6 | 8880 | 468.1
CC/C=C/CC(=O)N[C@@H](Cc1ccc(O)cc1)C(=O)N[C@@H](C)C(=O)N[C@@H](CC(=O)O)C(=O)N[C@@H](C)C(=O)N[C@H](C(=O)N[C@@H](Cc1ccccc1)C(=O)N[C@H](C(=O)N[C@@H](CC(=O)O)C(=O)N[C@@H](CO)C(=O)N[C@@H](Cc1ccc(O)cc1)C(=O)N[C@@H](CCCNC(=N)N)C(=O)N[C@@H](CCCCN)C(=O)N[C@H](C(=O)N[C@@H](CC(C)C)C(=O)N[C@@H](C)C(=O)N[C@@H](CCC(N)=O)C(=O)N[C@@H](CC(C)C)C(=O)N[C@@H](CO)C(=O)N[C@@H](C)C(=O)N[C@@H](CCCNC(=N)N)C(=O)N[C@@H](CCC(N)=O)C(=O)N[C@@H](CC(=O)O)C(=O)N[C@H](C(=O)N[C@@H](CC(C)C)C(=O)N[C@@H](C)C(=O)N[C@@H](CCCNC(=N)N)C(=O)N[C@@H](C)C(=O)N[C@@H](C)C(=O)N[C@@H](CCCNC(=N)N)C(=O)N[C@@H](C)C(=O)N[C@@H](C)C(=O)N[C@@H](CCCNC(=N)N)C(N)=O)[C@@H](C)CC)C(C)C)[C@@H](C)O)[C@@H](C)CC [SEQ ID NO: 27, Trans-3-hexenoyl-YADAIFTDSYRKVLAQLSARQDILARAARAAR-NH2] (HELM PEPTIDE1{[CC/C=C/CC(=O)[*:2]].Y.A.D.A.I.F.T.D.S.Y.R.K.V.L.A.Q.L.S.A.R.Q.D.I.L.A.R.A.A.R.A.A.R.[am]}$$$$V2.0) | 323.6 | 8350 | 455.6
CC[C@H](C)[C@H](NC(=O)[C@H](C)NC(=O)[C@H](CC(=O)O)NC(=O)[C@@H](C)NC(=O)[C@@H](N)Cc1ccc(O)cc1)C(=O)N[C@@H](Cc1ccccc1)C(=O)N[C@H](C(=O)N[C@@H](CC(=O)O)C(=O)N[C@@H](CO)C(=O)N[C@@H](Cc1ccc(O)cc1)C(=O)N[C@@H](CCCNC(=N)N)C(=O)N[C@@H](CCCCN)C(=O)N[C@H](C(=O)N[C@@H](CC(C)C)C(=O)N[C@@H](C)C(=O)N[C@@H](CCC(N)=O)C(=O)N[C@@H](CC(C)C)C(=O)N[C@@H](CCCCN)C(=O)N[C@@H](CC(C)C)C(=O)N[C@@H](CCCNC(=N)N)C(=O)N[C@@H](CCC(N)=O)C(=O)N[C@@H](CC(=O)O)C(=O)N[C@H](C(=O)N[C@@H](CC(C)C)C(=O)N[C@@H](C)C(=O)N[C@@H](CCCNC(=N)N)C(=O)N[C@@H](C)C(=O)N[C@@H](C)C(=O)N[C@@H](CCCNC(=N)N)C(=O)N[C@@H](C)C(=O)N[C@@H](C)C(=O)N[C@@H](CCCNC(=N)N)C(N)=O)[C@@H](C)CC)C(C)C)[C@@H](C)O [SEQ ID NO: 29, Y-a-DAIFTDSYRKVLAQLKLRQDILARAARAAR-NH2] (HELM PEPTIDE1{Y.[dA].D.A.I.F.T.D.S.Y.R.K.V.L.A.Q.L.K.L.R.Q.D.I.L.A.R.A.A.R.A.A.R.[am]}$$$$V2.0) | 457.7 | 9442 | 466.7

From US8361964B2, “Growth hormone releasing factor (GRF) analogs and uses thereof” (Theratechnologies Inc., priority 2011, dated 2013)
